Earlier results in article PMC2864005 (Archives of biochemistry and biophysics, 2010).

Tested on: 3A4
Conditions: after an initial burst

For `CCC(C)n1ncn(-c2ccc(N3CCN(c4ccc(OCC5COC(Cn6cncn6)(c6ccc(Cl)cc6Cl)O5)cc4)CC3)cc2)c1=O` (stereo not shown) [itraconazole], the Rate of metabolism is listed as 0.0016 s⁻¹.
